Experimental data as given in patent US5206241A, “Labdanes and process for their preparation” (Hoechst Aktiengesellschaft, priority 1990, dated 1993).
In brackets after ≈: the same amount, converted by molar mass. Where a name gives a salt, the structure may show the parent alone.

Legend:
Guinea pig atrium = experiment: Positive inotropic activity, electrically stimulated isolated guinea pig atrium; conditions: contractility of isolated atrium, Ringer's solution, 32° C., recorded 7 to 10 minutes; for EC50: Cavia porcellus
Description: Guinea pigs of both sexes and weighing 400 g are sacrificed, and the heart is removed and placed in Ringer's solution at room temperature. Both the left and the right atria are then isolated, fixed in an organ holder and placed in a bath containing Ringer's solution and maintained at a temperature of 32° C. A mixture of 95% O2 and 5% CO2 is bubbled through the organ bath. Electrical stimulation of the atrium is then carried out. A compound according to the invention is dissolved in water to give a solution of known concentration and is added to the bath. The contractility of the atrium is recorded for 7 to 10 minutes via an […] strain gage on a Nihon Kohden 4-channel pen recorder. The activity is expressed on the basis of the resulting data as the EC50.
Data for compounds disclosed in Indian Patent No. 163 242 are also provided for comparison.

[1] = test system: intraocular pressure (IOP) in conscious rabbits; experiment: Measurement of the intraocular pressure in conscious rabbits; format: in vivo, rabbit; conditions: 2% solution, 100 μl into one eye; for IOP-Lowering Effect, % decrease in IOP: Schioetz tonometer, relative to initial value; for IOP-Lowering Effect, Duration: unit of duration not given
Description: For this experiment rabbits of both sexes and weighin 2 to 3 kg are used. The intraocular pressure (IOP) is measured with a Schioetz tonometer after corneal anaesthesia with a 2% novocaine solution. A 2% solution of a compound according to the invention is prepared, using the stoichiometric amount of 0.1N HCl, by dissolving it or its salt directly in water. After the initial value has been determined, 100 μl of the solution of the test compound are […] into one of the eyes, and the vehicle is instilled into the other eye. The IOP is measured at defined time intervals, i.e. 0.5, 1, 2, 3, 4 and 5 hours. The percentage decreases in the IOP is calculated using the initial value.

Compound | EC50 (Guinea pig atrium) [µg/mL] | IOP-Lowering Effect, % decrease in IOP [1] | IOP-Lowering Effect, Duration [1] | also measured
C=C[C@@]1(C)CC(=O)[C@]2(O)[C@@]3(C)[C@@H](O)CCC(C)(C)[C@@H]3[C@H](OC(=O)CCN3CCOCC3)[C@H](OC(=O)COCC)[C@@]2(C)O1 [drawing 34] | 0.044 (≈ 0.0739 µM) |  |  | 
C=C[C@@]1(C)CC(=O)[C@]2(O)[C@@]3(C)[C@@H](O)CCC(C)(C)[C@@H]3[C@H](OC(=O)CCN3CCN(C)CC3)[C@H](OC(=O)COCC)[C@@]2(C)O1 |  | 32% | > 360 | 
C=C[C@@]1(C)CC(=O)[C@]2(O)[C@@]3(C)[C@@H](O)CCC(C)(C)[C@@H]3[C@H](OC(=O)CN3CCCCC3)[C@H](O)[C@@]2(C)O1 [drawing 41, reference compound] |  | Not active |  | 
C=C[C@@]1(C)CC(=O)[C@]2(O)[C@@]3(C)[C@@H](O)CCC(C)(C)[C@@H]3[C@H](OC(=O)CCN3CCOCC3)[C@H](OC(=O)COCC)[C@@]2(C)O1 [drawing 39] |  | 31% | > 360 | 
C=C[C@@]1(C)CC(=O)[C@]2(O)[C@@]3(C)[C@@H](O)CCC(C)(C)[C@@H]3[C@H](OC(=O)CCN3CCCCC3)[C@H](OC(=O)COc3ccccc3)[C@@]2(C)O1 |  | 31% | 300 | 
C=C[C@@]1(C)CC(=O)[C@]2(O)[C@@]3(C)[C@@H](O)CCC(C)(C)[C@@H]3[C@H](OC(=O)CCN3CCOCC3)[C@H](O)[C@@]2(C)O1 [reference compound] |  |  |  | Guinea pig atrium EC50 (Guinea pig atrium): Not active
C=C[C@@]1(C)CC(=O)[C@]2(O)[C@@]3(C)[C@@H](O)CCC(C)(C)[C@@H]3[C@H](OC(=O)COC)[C@H](OC(=O)CCN(C)C)[C@@]2(C)O1 [COCH2 OCH3, CO(CH2)2 NMe2.HCl, 1α,9α-Dihydroxy-7β-(3-N,N-dimethylamino-propionyloxy)-8,13-epoxy-6β-methoxyacetoxy-labd-14-en-11-one] | 0.77 |  |  | 
C=C[C@@]1(C)CC(=O)[C@]2(O)[C@@]3(C)[C@@H](O)CCC(C)(C)[C@@H]3[C@H](OC(=O)CCN(C)C)[C@H](OC(=O)COC)[C@@]2(C)O1 [CO(CH2)2 N(CH3)2.2HCl, COCH2 OCH3, 1α,9α-Dihydroxy-6β-(3-N,N-dimethylamino-propionyloxy)-8,13-epoxy-7β-methoxy-acetoxy-labd-14-en-11-one] | 0.024 |  |  | 
C=C[C@@]1(C)CC(=O)[C@]2(O)[C@@]3(C)[C@@H](O)CCC(C)(C)[C@@H]3[C@H](OC(=O)CN3CCCCC3)[C@H](O)[C@@]2(C)O1 [drawing 36, reference compound] | 1.8 (≈ 3.65 µM) |  |  | 
